# Measured values: patent US9290528B1, “Light-activated compounds” (University of Kentucky Research Foundation, priority 2013, dated 2016)
# Several values for one entry are separate records, joined by “and”; a condition that tells them apart may be missing. Identical values can stand only once. Like-named read-outs stand apart in the source and are kept apart here.
# Legend:
# [1] = system: pUC19 plasmid; experiment: Glutathione assay: pUC19 crosslinking with increasing GSH; assay type: biochemical; settings: 30 μM compound, 0.01-40 mM GSH; 4 light-activated
# Method: The concentrations of GSH were 0.01, 0.1, 1, 10, 40 mM, giving a molar ratio between the compounds and glutathione of a) 1:0.3, b) 1:3.3, c) 1:33, d) 1:333, e) 1:1333. […] Control reactions with pUC19 in the presence and absence of GSH were carried out for 12 hrs in the dark with 25 μg/ml plasmid and 40 mM GSH in 10 mM phosphate buffer, pH 7.5. The plasmid was resolved on a 1% agarose gel as described above.
# (§1) The photoactivated DNA crosslinking Ru(bpy)2 species retained its ability to damage DNA, even at higher GSH concentrations.
# [2] = system: A549 tumor spheroids; experiment: A549 tumor spheroid cytotoxicity; assay type: cell-based
# Method: A549 cells were seeded at 2,500 cells/well in 1.5% agarose coated 96-well plates. After 7 days the spheroids were dosed with compounds and incubated for 12 hrs. […] Cellular viability was determined 72 hours after light activation for the irradiated samples and at the same time point for the dark samples by measuring ATP concentration with CellTiter Glo (Promega). Data were fit to an equation for sigmoidal dose response shown above using the Prism software package.
# 3D tumor spheroids were used to test the compounds. Spheroids provide a system that approximates the complexity of in vivo tumors. These spheroids mimic the pathophysiology of tumors, including hypoxic/necrotic regions, changes in cell shape, high proportions of quiescent cells, alterations in gene expression profiles, and diminished permeability to drugs. […] To characterize the light-activated ruthenium compounds under more challenging and biologically relevant conditions, efficacy was assessed in a 3D tumor model by forming tumor spheroids with A549 cells.
# Spheroids of about 600 μm in diameter were dosed with compounds and then either kept in the dark or irradiated with >450 nm light for 3 minutes.
# [3] = system: HL60 promyelocytic leukemia cell line; experiment: Cell survival assay, HL60; assay type: cell-based
# Method: (§2) The HL60 promyelocytic leukemia cell line was obtained from ATCC and cultured in IMDM media (Invitrogen; Carlsbad, Calif.) supplemented with 10% serum supreme (Lonza; Basel, Switzerland) and penicillin/streptomycin at 37° C. with 5% CO2. The A549 cell line was donated and cultured in DMEM supplemented with glutamax, 10% serum supreme, and penicillin/streptomycin at 37° C. with 5% CO2. Cells were plated in Optimem (Life Technologies; Carlsbad, Calif.) supplemented with 1% serum supreme and penicillin/streptomycin at 30,000 cells per well in Costar 96 well flat bottom clear tissue culture treated plates for HL60 and 1500 cells/well for A549. […] The cells were then incubated for 72 hours followed by the addition of Cell Titer Glo (Promega; Madison, Wis.) to determine viability. Dark controls were run in parallel. The resulting luminescence was measured using the SpectraFluor Plus Plate Reader (Tecan). Data were fit to an equation for a sigmoidal dose response using the equation below, where yi and yf are the initial and final signal intensities.
# (§3) Cell cytotoxicity studies were performed in HL60 leukemia cells and A549 lung cancer cells (see FIG. 7 and Table 3). Cells were incubated with compounds for 12 hours in the dark before irradiated with >450 nm light (410 W) for 3 minutes. Dark controls were run in parallel. Cell survival was quantified 72 hours later through the use of an ATP luciferase assay, and confirmed by Trypan Blue staining and manual counting.
# [4] = Photoejection followed by UV/Vis absorption spectroscopy (Example 2); settings: >450 nm light
# Method: Absorption spectra were obtained on an Agilent 8453 Diode Array spectrophotometer (Santa Clara, Calif.). Photoexpulsion experiments were performed using a Dell 200 Watt 1410X projector (for in vitro photoejection experiments) or 410 Watt 955 Model 900 AJH projector (for cell cytotoxicity studies) (Dell Inc.; Round Rock, Tex.) fitted with an Edmund Optics filter (NT43-935) (Barrington, N.J.). UV/Vis experiments were performed in a 1-cm pathlength quartz cuvette located 18 inches from the projector. Kinetics were fit using the equation for a single exponential with the Prism software package.
# [5] = system: A549 cells; experiment: Glutathione assay in A549 cells (cytoprotection); assay type: cell-based; settings: co-dosed with increasing GSH
# Method: A549 cells were plated in Optimem supplemented with 1% serum supreme and penicillin/streptomycin in 96 well plates as described above. […] Cellular viability was determined by measuring ATP concentration with CellTiter Glo (Promega). Data were fit to an equation for sigmoidal dose response shown above using the Prism software package.
# [6] = system: pUC19 plasmid; experiment: Plasmid-compound gel analysis (Example 2); settings: visible light 200 W, 1 hour
# Method: Plasmid-compound gel analysis: Plasmid pUC19 was obtained from Bio-Rad (Hercules, Calif.), transformed into DH5a cells and positive transformants were selected by colony formation on Ampicillin LB-Agar plates. Colonies were grown in LB and plasmid isolated using a Maxi-prep plasmid isolation kit (Qiagen; Velno, Netherlands). Plasmid amounts were quantified by UV/VIS. For dosing studies, 40 μg/ml of plasmid was incubated with compound dosed from 0 to 500 μM in 96 well plates. They were incubated for 30 min prior to light activation for 1 hour using a Dell 1410x 200 W projector fitted with a >450 nm cut-off filter. Dark controls were performed by keeping the DNA:compound mixtures in the dark. The samples were incubated overnight after light activation before gel analysis; the dark samples were also incubated for the same time period. Linear plasmid and relaxed circle plasmid were generated and run side-by-side with compound treated samples. Linear plasmid was generated using the EcoRI restriction enzyme (New England BioLabs; Ipswich, Mass.) following the manufacturers protocol. Single cut, relaxed circle, plasmid was generated using the copper phenanthroline reaction. Reaction was carried out in 10 mM phosphate buffer pH 7.5, with 40 μg/ml plasmid, 1 mM DTT, 1 mM hydrogen peroxide, and 5 μM copper phenanthroline for 30 min at 25° C. The addition of DTT reduced the copper phenanthroline to the +1 charge state, followed by reaction with peroxide created the damage to the DNA. Samples were resolved on a 1% non-EB (ethidium bromide) agarose gel followed by 40 minutes of staining with 0.5 μg/ml EB in Tris-Acetate buffer followed by 40 minutes of destaining in Tris-Acetate before imaging.
# [7] = Light and dark cytotoxicity of exemplary compounds (Table 6); assay type: cell-based; settings: for IC50: cell line not stated; for Phototoxicity Index: dark IC50/light IC50
# From the text: This Example describes additional specific embodiments the presently-disclosed subject matter. […] The methods for making and characterizing the compounds are based on the methodologies described in the previous examples.
# [8] = system: A549 lung cancer cells; experiment: Cell survival assay, A549 monolayer; assay type: cell-based
# Method: as §2, §3
# [9] = system: HL60 leukemia cells and A549 lung cancer cells; experiment: Cell cytotoxicity studies, summary over HL60 and A549; assay type: cell-based
# Method: as §2, §3
# [10] = Interaction of prodrug compounds with GSH by UV/Vis spectroscopy; assay type: physicochemical; settings: period of days
# From the text: as §1
# [11] = system: HL60 cells
# [12] = system: A549 cells; experiment: Uptake and subcellular localization by Apoptome microscopy; assay type: cell-based, human
# Method: The emission of 9 and 10 was measured in A549 cells using an Apoptome microscope. The relative rates of uptake of each of the complexes were analyzed as a function of time, and both 9 and 10 were visible inside cells as early as 2 hours after compound addition, consistent with the flow data and the ICP-OES results. Images were taken at 2, 8, 18 and 24 hours, and intracellular levels of both complexes appeared to plateau around 8 hours.
# Differences in the intracellular localization of 9 and 10 were evaluated by determining colocalization of luminescence of the compound and fluorescent markers of organelles in A549 cells. Overlap in signals between the compounds, cellular nucleus, mitochondria and lysosome was measured over a 24 hour period.
# [13] = system: HL60 cells; experiment: Genomic DNA laddering by gel electrophoresis; assay type: cell-based, human; settings: dark / not irradiated
# From the text: To further analyze the mechanisms of cell death induced by 9 and 10, the degradation pattern of genomic DNA was investigated. DNA laddering was observed as a result of DNA fragmentation stemming from the execution phase of apoptosis. In contrast, necrotic cell death lacked this characteristic laddering effect, allowing differentiation between these two mechanisms. […] This laddering was absent in the cells treated with ethanol and compounds 9 and 10 in the dark. […] In contrast, given the cytotoxicity of 9 in the dark and the presence of the 55 kDa PARP fragment, it appears that necrotic cell death is one pathway for […]. For compound 10 the absence of DNA laddering may be a result of the lack of cytotoxicity of the negatively charged compound.
# [14] = system: HL60 cells; experiment: Cell viability as a function of time; assay type: cell-based, human; settings: irradiated
# [15] = Log P; assay type: physicochemical
# [16] = system: HL60 cells; remark: listed apart in the source
# [17] = system: HL60 cells; experiment: Western blot of PARP and caspase 3 cleavage; assay type: cell-based, human
# Method: Given the different cellular localization properties and time profiles for cell death induced by 9 and 10, the mechanism of cell death was investigated. Indicators of apoptotic cell death (activation of PARP and caspase 3 through proteolysis) were determined in HL60 cells treated with either 9 or 10 (FIGS. 15A and 15B).
# The generation of an alternate 55 kDa PARP fragment was determined by immunoblot as a marker for necrosis with 10% (v/v) ethanol used as a control that induces necrosis.
# [18] = system: pUC19 plasmid DNA; experiment: pUC19 plasmid DNA damage by gel electrophoresis (Example 4); assay type: biochemical; settings: 40 J/cm^2 >400 nm light
# Method: Their DNA damaging properties were assessed with pUC19 plasmid DNA using gel electrophoresis. […] Samples were then incubated for 24 hours at room temperature protected from light. Controls were prepared to simulate single and double strand DNA breaks, and the DNA samples resolved on agarose gels. Samples were resolved using 1% agarose gels prepared in tris-acetate (TA) buffer. Each lane was loaded with 0.3 μg of pUC19 and the samples run for 90 minutes at […]. The gels were stained with 500 ng/mL ethidium bromide in TA buffer at room temperature for 40 minutes. […] In contrast, 10 is a more hydrophilic molecule, and the negatively charged sulfonate functional groups were anticipated to cause electrostatic repulsions between the complex and the negatively charged backbone of the DNA. DNA precipitation or smearing was not observed with up to 500 μM of […] (FIG. 12B).
# [19] = system: HL60 cells; experiment: Mitochondrial membrane potential (TMRE); assay type: cell-based, human; settings: dark and irradiated
# From the text: FIGS. 14A to 14D includes charts showing mitochondrial potential and cell viability of HL60 cells as a function of time for (FIG. 14A) 9, dark, (FIG. 14B) 9, irradiated; (FIG. 14C) 10, dark; (FIG. 14D) 10, irradiated. TMRE was used to quantify membrane potential; values are relative to a no-compound control value of 100.
# TMRE is a cationic dye that accumulates in active motochondria as a result of the negative membrane potential (Δψm).
# [20] = system: 15 mer oligonucleotide A; assay type: physicochemical
# From the text: (§4) The G-quadruplex sequence is [NT].
# [21] = system: G-quadruplex [AGGG(TTAGGG)3]; assay type: physicochemical
# From the text: as §4
# [22] = system: calf thymus (CT) DNA; assay type: physicochemical; settings: bovine
# [23] = Photoejection half-life of 8 in solvents; assay type: physicochemical; settings: D2O vs H2O
# From the text: The photochemical behaviour of 8 paralleled the photophysical characteristics of unstrained Ru^II complexes containing the dppz ligand.
# [24] = molecular target: CT DNA; experiment: DNA binding affinity (Kb) with CT DNA; parameters: species or system calf; settings: racemic mixtures
# From the text: Intercalation of both complexes was consistent with the reduced mobility of supercoiled plasmid DNA in agarose gels, and the modulation of the absorption spectra in the presence of DNA, characterized by hypochromism of both the π-π* of the dppz ligand and the MLCT transitions, with maximal effect at a ratio of 2:1 DNA base pairs to metal center. Thus, the strained complex retained DNA-sensing capabilities of other Ru^II “light-switch” molecules and photochemical reactivity.
compound,measurement,setting,value
"Cc1cccc(-c2cccc(C)n2)n1.F[P-](F)(F)(F)(F)F.F[P-](F)(F)(F)(F)F.[Ru+2].c1ccc(-c2ccccn2)nc1.c1ccc(-c2ccccn2)nc1 [Compound 4, Ru(bpy)2-6,6′dmbpy]",plasmid DNA crosslinking in presence of increasing GSH,[1],greater DNA binding than cisplatin
same,IC50,"[2]; 3 min >450 nm light, 72 hours, read-out: Light IC50 A549 spheroid",21 µM and 21.3 µM
same,IC50,"[2]; dark, read-out: Dark IC50 A549 spheroid",> 300 µM
same,MCR Index,[2]; ratio of spheroid and monolayer culture IC50,19.4
same,IC50,"[3]; 3 min >450 nm light, 72 hours, read-out: Light IC50 HL60",1.6 µM
same,IC50,"[3]; dark, read-out: Dark IC50 HL60",> 300 µM
same,"Phototoxicity Index, PI HL60",[3]; ratio of dark and light IC50,>188
same,reaction kinetics of 4 relative to 5,[4],30 fold
same,effect of GSH on cytotoxicity,[5],not
same,type of DNA damage upon visible light,[6],DNA photobinding
same,IC50,[7]; read-out: Dark IC50,300 µM
same,IC50,[7]; read-out: Light IC50,1.5 µM
same,Phototoxicity Index,[7],200
same,IC50,"[8]; 3 min >450 nm light, 72 hours, read-out: Light IC50 A549",1.1 µM
same,IC50,"[8]; dark, read-out: Dark IC50 A549",150 µM
same,"Phototoxicity Index, PI A549",[8]; ratio of dark and light IC50,136
same,activity light versus dark,[9]; >450 nm light 3 minutes vs dark,light-triggered toxicity
same,IC50 values after irradiation,[9]; after irradiation,single μM IC50 values
same,dark toxicity (none observed up to this concentration),[9]; dark,> 300 µM
same,interaction with GSH,[10],did not interact with GSH
"O=S(=O)([O-])c1ccc(-c2ccnc3c2ccc2c(-c4ccc(S(=O)(=O)[O-])cc4)ccnc23)cc1.O=S(=O)([O-])c1ccc(-c2ccnc3c2ccc2c(-c4ccc(S(=O)(=O)[O-])cc4)ccnc23)cc1.O=S(=O)([O-])c1ccc(-c2ccnc3c2ccc2c(-c4ccc(S(=O)(=O)[O-])cc4)ccnc23)cc1.[Ru+2] [Compound 10, Ru(bathophenanthorlinedisulfonate)3]",amount within the cells after irradiation,[11],1.6%
same,time at which intracellular levels plateau,[12],around 8 hours
same,genomic DNA laddering,[13],absent
same,cell viability,[14]; 2 hours,70±12%
same,viable cells remaining,[14]; 24 hours,70% and 59±4%
same,viable cells remaining,[14]; 48 hours,55%
same,Log P,[15],−2.2 ± 0.12
same,increase of average emission of cells between 2 and 24 hours,[16],4 fold
same,PARP and caspase 3 activation,[17]; absence of light,did not display PARP or caspase 3 cleavage
same,PARP and caspase 3 activation,[17]; irradiated,induced PARP as early as 2 hours
same,55 kDa PARP fragment (marker for necrosis),[17]; protected from light and irradiated,lower level of the 55 kDa PARP fragment
same,DNA damage when exposed to light,[18],induced single strand DNA breaks
same,effect on mitochondrial potential,[19],did not significantly reduce the mitochondrial potential
Ru(bpy)2dmdppz [Compound 8],Half-life,[20],31 ± 0.5 min
same,Half-life,[21],13.5 min
same,increase of photoejection rate compared to CT DNA,[21]; bound to G-quadruplex,3 fold
same,Half-life,[22],41 ± 2 min
same,t1/2 values,[22],31 to 41 min
same,isotope effect of ejection,[23],> 3.4
same,Kb,[24],3e+07 M⁻¹
same,IC50,[7]; read-out: Dark IC50,65 µM
same,IC50,[7]; read-out: Light IC50,14 µM
same,Phototoxicity Index,[7],4.6
